{
  "source": "patent US7144880B2",
  "about": "“Compositions relating to novel compounds and targets thereof” (Regents of the University of Michigan, priority 2003, dated 2006)",
  "key": {"Ramos cells [1]": {"tested_on": "Ramos cells", "assay": "Cytotoxicity in media containing 10% FBS", "format": "cell-based, human", "text": "Like most 1,4-benzodiazepines, Bz-423 binds strongly to bovine serum albumin (BSA), which reduces the effective concentration of drug free in solution. For example, in tissue culture media containing 10% (v/v) fetal bovine serum (FBS), ca. 99% of the drug is bound to BSA. […] Under these conditions, the dose response-curve is quite sharp such that there is a limited concentration range at which Bz-423 is only partly effective. Since some benzodiazepines are known to have anti-proliferative properties, the effect of Bz-423 at concentrations <ED50 were carefully analyzed and observed that in addition to inducing apoptosis, Bz-423 prevented cell growth after 3 d in culture. In these low serum conditions, the cytotoxic and anti-proliferative effects overlapped making it difficult to study each effect independently. […] While higher amounts of drug may also block proliferation, it caused apoptosis well before the effects on proliferation could be observed."}, "[2]": {"tested_on": "ornithine decarboxylase (ODC)", "assay": "ODC activity in treated cells, conversion of 3H-ornithine to putrescine", "format": "cell-based", "settings": "cells treated 4 h", "experimental": "In these experiments, the conversion of ornithine to putrescine was quantified using ^3H-ornithine. For comparisons, control cells were treated with vehicle control or difluoromethyl ornithine (DFMO), a potent inhibitor of ornithine decarboxylase (like Bz-423, DFMO is a potent anti-proliferative agent). […] The reduction in ODC activity was paralleled by a decrease in ODC protein levels measured under the same conditions.\nAs described above, Bz-423 induced apoptosis was signaled by an ROS response that arose from MRC complex III as a result of the state 3 to 4 transition. It was next sought to determine if the ROS response, critical for apoptosis, also mediated these effects on ODC. If the ROS was required for the decrease in ODC activity, it would likewise be implicated as potentially part of the anti-proliferative response to Bz-423. To test this, Ramos cells were treated with Bz-423, DFMO, or vehicle control for 4 h. In parallel, a second group of cells was pre-incubated with MnTBAP to limit the ROS and then cultured with Bz-423, DFMO, and vehicle control."}, "B cells": {"tested_on": "B cells", "assay": "Collapse of mitochondrial ΔΨm detected with DiOC6(3)", "format": "cell-based", "settings": "by 5 hours", "experimental": "To detect O2^−, cells are incubated with DHE (10 μM) for 30 min at 37° C. and are analyzed by flow cytometry to measure ethidium fluorescence. Flow analysis of mitochondrial transmembrane potential (ψm) is conducted by labeling cells with DiOC6(3) (20 nM) for 15 min at 37 degrees C. A positive control for disruption of ψm is established using carbonyl cyanide m-chlorophenylhydrazone (CCCP, 50 μM). Caspase activation assays are performed with FAM-VAD-fluoromethylketone. Processing of the substrate is evaluated by flow cytometry.\nTo characterize the death mechanism engaged by Bz-423, intracellular ROS, ΔΨm, cytochrome c release, caspase activation, and DNA fragmentation were measured over time (the results presented are for B cells but do characterize the response in many different cell types). The first event detected after exposure to Bz-423 is an increase in the fraction of cells that stain with dihyroethedium (DHE), a redox-sensitive agent that reacts specifically with O2^−.\nCollapse of ΔΨm was detected using DiOC6(3), a mitochondria-selective potentiometric probe."}, "[3]": {"tested_on": "isolated rat liver mitochondria", "assay": "ROS production in isolated mitochondria (DCFH oxidation to DCF)", "format": "biochemical", "experimental": "Male Long Evans rats are starved overnight and sacrificed by decapitation. Liver samples are homogenized in ice cold buffer A (250 mM sucrose, 10 mM Tris, 0.1 mM EGTA, pH 7.4), and nuclei and cellular debris are pelleted (10 min, 830 g, 4° C.). Mitochondria are collected by centrifugation (10 min, 15,000 g, 4° C.), and the supernatant is collected as the S15 fraction. The mitochondrial pellet is washed three times with buffer B (250 mM sucrose, 10 mM Tris, pH 7.4), and re-suspended in buffer B at 20–30 mg/mL. Mitochondria are diluted (0.5 mg/mL) in buffer C (200 mM sucrose, 10 mM Tris, pH 7.4, 1 mM KH2PO4, 10 μM EGTA, 2.5 μM rotenone, 5 mM succinate) containing 2′,7′-dichlorodihydrofluorescin diacetate (DCFH-DA, 1 μM). For state 3 measurements, ADP (2 mM) is included in the buffer, and prior to the addition of Bz-423, mitochondria are allowed to charge for 2 min. To induce state 4, oligomycin (10 μM) is added to buffer C. […] To detect effects on O2^− and delta ψm, mitochondria are incubated for 15 min at 37° C. in buffer C with vehicle, Bz-423, or CCCP containing DHE (5 μM) or DIOC6(3) (20 nM), and aliquots are removed for analysis by fluorescence microscopy.\nO2^− production by Bz-423 may result from binding to a protein within mitochondria or a target in another compartment that signals mitochondria to generate ROS. To distinguish between these alternatives, isolated rat liver mitochondria were assayed for ROS production by monitoring the oxidation of 2′,7′-dichlorodihydrofluorescin diacetate to of 2′,7′-dichlorofluorescin in the presence and absence of Bz-423. In this assay, the rate of DCF production increased after a lag period during which endogenous reducing equivalents were consumed and the acetate moieties on the probe were hydrolyzed to yield 2′,7′-dichlorodihydrofluorescin, the redox-active species."}, "[4]": {"molecular_target": "peripheral benzodiazepine receptor (PBR) (Homo sapiens, UniProt P30536)", "sequence (P30536 whole entry, species assumed)": "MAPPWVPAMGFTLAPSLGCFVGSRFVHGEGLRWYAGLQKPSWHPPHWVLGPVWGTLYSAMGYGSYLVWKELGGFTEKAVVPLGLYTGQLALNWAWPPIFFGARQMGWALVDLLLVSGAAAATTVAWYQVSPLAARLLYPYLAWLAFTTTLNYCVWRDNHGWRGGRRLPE", "assay": "Binding to the peripheral benzodiazepine receptor"}, "Ramos cells [5]": {"tested_on": "Ramos cells", "assay": "Gene expression profiling (Affymetrix U133A) of treated cells", "format": "cell-based, human", "settings": "versus control cells", "experimental": "In vitro testing with Ramos cells to determine the changes in gene expression (at the level of mRNA) induced by Bz-423 was performed by culturing cells at a density of 500,000 cells per ml. Solvent control (DMSO, final concentration 0.1% V/V]), Bz-423, or Bz-OMe (10 μM) was added to cells. After 4 h, cells were harvested and RNA prepared using Trizol Reagent (#15596-018, Life Technologies, Rockville, Md.) and the RNeasy Maxi Kit (# 75162, Qiagen, Valencia, Calif.) according to manufacturers protocols. Single stranded cDNA was synthesized by reverse transcription using poly (A) RNA present in the starting total RNA sample. Single stranded cDNA was converted into double stranded cDNA and then in vitro transcription carried out in the presence of biotinylated UTP and CTP to produce biotin-labeled cRNA. cRNA was fragmented in the presence of Mg2+, and hybridized to the human genome U133A Genechip array (Affymetrix). Hybridization results were quantified using a GeneArray scanner and analysis carried out according to the instructions provided by Affymetrix. […]\nThe data were analyzed to detect genes changes Bz treatment according to the criteria that the log-transformed mean signal changed at least four-fold in treated compared to vehicle control samples and that the coefficient of variance for control values (n=4) was less than 10%. […]"}},
  "data": [
    {"smiles": "CN1C(=O)C(Cc2ccc3ccccc3c2)N=C(c2ccc(O)cc2)c2cc(Cl)ccc21", "note": "(centres unmarked) [Bz-423]", "values": [
      {"measurement": "Cytotoxicity", "setting": "Ramos cells [1]; 10–15 μM", "value": "minimal cytotoxicity"},
      {"measurement": "Cytotoxicity", "setting": "Ramos cells [1]; >20 μM", "value": "only apoptosis was observed"},
      {"measurement": "Effect on ODC activity", "setting": "[2]", "value": "significantly reduced ODC activity"},
      {"measurement": "Cells with collapse of ΔΨm", "setting": "B cells", "value": "> 90", "unit": "%"},
      {"measurement": "Increase in rate of ROS production versus control", "setting": "[3]; state 3 respiration, aerobic, after induction phase, slopes compared to control", "value": "nearly two-fold"},
      {"measurement": "ROS production in state 4 mitochondria", "setting": "[3]; state 4 respiration", "value": "does not stimulate ROS"},
      {"measurement": "Kd", "setting": "[4]", "value": "~1000", "unit": "nM"},
      {"measurement": "Induction of MIF expression", "setting": "Ramos cells [5]", "value": "approximately 10 fold"}
    ]}
  ]
}
